What follows are compounds tested against human TYK2 (JH2domain-pseudokinase) (Homo sapiens (Human), UniProt P29597) (assay: TYK2 JH2 Domain Binding Assay (KINOMEscan, DiscoveRx)). Conditions: 11-point dilution, duplicate.
Chain of human TYK2 (JH2domain-pseudokinase) (P29597 556-888): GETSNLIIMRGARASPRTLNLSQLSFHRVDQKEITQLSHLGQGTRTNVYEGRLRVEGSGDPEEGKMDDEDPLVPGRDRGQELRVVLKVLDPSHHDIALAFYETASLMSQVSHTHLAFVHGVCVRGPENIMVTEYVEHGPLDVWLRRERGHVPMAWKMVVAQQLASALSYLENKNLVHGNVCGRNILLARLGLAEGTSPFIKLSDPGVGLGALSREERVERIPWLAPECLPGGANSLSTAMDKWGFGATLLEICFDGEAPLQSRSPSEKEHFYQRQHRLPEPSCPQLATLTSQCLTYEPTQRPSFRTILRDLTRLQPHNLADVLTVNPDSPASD
How it was run: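 TYK2 JH2 (G556–D888)–NFkB DBD fusion, DNA-tagged, from HEK293 extracts (<0.1 nM) competed against immobilised biotinylated ligand for 1 h at room temperature, 0.9% DMSO. Bead-retained kinase quantified by qPCR; Kd from 11-point 3-fold series (top 30,000 nM, duplicate), Hill fit with slope −1.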
Cc1nc2c(Nc3ccc(C4=NC(C)(C)CO4)cc3S(C)(=O)=O)cc(NC(=O)[C@H]3C[C@H]3F)nc2[nH]1 [I-339, (1R,2R)—N-(7-((4-(4,4-dimethyl-4,5-dihydrooxazol-2-yl)-2-(methylsulfonyl)phenyl)amino)-2-methyl-3H-imidazo[4,5-b]pyridin-5-yl)-2-fluorocyclopropane-1-carboxamide] was tested, and the Kd was 1 to 10 nM.
Compound Cc1nc2c(Nc3ccc([C@H]4CCCO4)cc3S(C)(=O)=O)cc(NC(=O)C3CC3(F)F)nc2[nH]1 (stereo partly drawn) [I-340, 2,2-difluoro-N-(2-methyl-7-((2-(methylsulfonyl)-4-((R)-tetrahydrofuran-2-yl)phenyl)amino)-3H-imidazo[4,5-b]pyridin-5-yl)cyclopropane-1-carboxamide] has a Kd of 0.5 to 1 nM.
Cc1cnc(-c2ccc(Nc3cc(Nc4cccc(C#N)n4)nc4[nH]c(C(F)F)nc34)c(S(C)(=O)=O)c2)n1C [I-341] gave a Kd of 0.1 to 0.5 nM.
For Cc1nc2c(Nc3ccc(-c4c(C)nn(C)c4C)cc3S(C)(=O)=O)cc(Nc3cnc(C)c(C)n3)nc2[nH]1 [I-342], the Kd was 0.1 to 0.5 nM.
For Cc1ncc(Nc2cc(Nc3ccc(-c4c(C)nn(C)c4C)cc3S(C)(=O)=O)c3nc(C(F)F)[nH]c3n2)nc1C [I-343], the Kd was 0.1 to 0.5 nM.
Cc1cc(Nc2cc(Nc3ccc(-c4c(C)nn(C)c4C)cc3S(C)(=O)=O)c3nc(C)[nH]c3n2)nc(C)n1 [I-344] was tested, and the Kd was 0.1 to 0.5 nM.
Cc1cc(Nc2cc(Nc3ccc(-c4c(C)nn(C)c4C)cc3S(C)(=O)=O)c3nc(C(F)F)[nH]c3n2)nc(C)n1 [I-345] was tested, and the Kd was 0.1 to 0.5 nM.
Cc1nc2c(Nc3ccc(C4=NC(C)(C)CS4)cc3S(C)(=O)=O)cc(NC(=O)C3CC3(F)F)nc2[nH]1 (stereo not drawn) [I-346] was tested, and the Kd was greater than 10 nM.
Cc1nn(C)c(C)c1-c1ccc(Nc2cc(Nc3cccc(C#N)n3)nc3[nH]c(C(F)F)nc23)c(S(C)(=O)=O)c1 [I-347] was tested, and the Kd was 0.1 to 0.5 nM.
Cc1nc2c(Nc3ccc([C@@H]4CCCO4)cc3S(C)(=O)=O)cc(NC(=O)C3CC3(F)F)nc2[nH]1 (stereo partly drawn) [I-348, 2,2-difluoro-N-(2-methyl-7-((2-(methylsulfonyl)-4-((S)-tetrahydrofuran-2-yl)phenyl)amino)-3H-imidazo[4,5-b]pyridin-5-yl)cyclopropane-1-carboxamide] gave a Kd of 0.1 to 0.5 nM.
Work on COc1c(Nc2cc(Nc3cccc(C#N)n3)nc3[nH]c(C(F)F)nc23)cccc1-c1nc(C)cs1 [I-349] yielded a Kd of 1 to 10 nM.
With Cc1c(-c2ccc(Nc3cc(NC(=O)C4CC4)nc4[nH]c(C(F)F)nc34)c(S(C)(=O)=O)c2)nn(C)c1C [I-350] the Kd was 0.1 to 0.5 nM.
CC1(C)CSC(c2ccc(Nc3cc(NC(=O)C4CC4(F)F)nc4[nH]c(C(F)F)nc34)c(S(C)(=O)=O)c2)=N1 (stereo not drawn) [I-351, N-(2-(difluoromethyl)-7-((4-(4,4-dimethyl-4,5-dihydrothiazol-2-yl)-2-(methylsulfonyl)phenyl)amino)-3H-imidazo[4,5-b]pyridin-5-yl)-2,2-difluorocyclopropane-1-carboxamide] was tested, and the Kd was greater than 10 nM.
With Cc1nc2c(Nc3ccc(-c4ncc(C)n4C)cc3S(C)(=O)=O)cc(Nc3cccc(C#N)n3)nc2[nH]1 [I-352] the Kd was 0.1 to 0.5 nM.
Work on CC1(C)CC[C@@H](c2ccc(Nc3cc(NC(=O)C4CC4)nc4[nH]c(C(F)F)nc34)c(S(C)(=O)=O)c2)OC1 [I-353] yielded a Kd of 0.1 to 0.5 nM.
In the case of CC1(C)CC[C@H](c2ccc(Nc3cc(NC(=O)C4CC4)nc4[nH]c(C(F)F)nc34)c(S(C)(=O)=O)c2)OC1 [I-354], the Kd is reported as 1 to 10 nM.
Cc1nc2c(Nc3ccc(-c4c(C)nn(C)c4C)cc3S(C)(=O)=O)cc(Nc3cccc(C#N)n3)nc2[nH]1 [I-355] was tested, and the Kd was 0.1 to 0.5 nM.
CC1(C)CCC(c2ccc(Nc3cc(NC(=O)C4CC4)nc4[nH]c(C(F)F)nc34)c(S(C)(=O)=O)c2)OC1 (stereo not drawn) [I-356] was tested, and the Kd was 0.1 to 0.5 nM.
Compound Cc1nc2c(Nc3ccc(C4CC(C)(C)OC(C)(C)C4)cc3S(C)(=O)=O)cc(NC(=O)C3CC3)nc2[nH]1 [I-357] has a Kd of 1 to 10 nM.
Compound CS(=O)(=O)c1cc(C2CCC2)ccc1Nc1cc(NC(=O)C2CC2(F)F)nc2[nH]c(C(F)F)nc12 (stereo not drawn) [I-358, N-(7-((4-cyclobutyl-2-(methylsulfonyl)phenyl)amino)-2-(difluoromethyl)-3H-imidazo[4,5-b]pyridin-5-yl)-2,2-difluorocyclopropane-1-carboxamide] has a Kd greater than 10 nM.
In the case of CS(=O)(=O)c1cc([C@@H]2CCCOC2)ccc1Nc1cc(NC(=O)C2CC2(F)F)nc2[nH]c(C(F)F)nc12 (stereo partly drawn) [I-359, N-(2-(difluoromethyl)-7-((2-(methylsulfonyl)-4-((S)-tetrahydro-2H-pyran-3-yl)phenyl)amino)-3H-imidazo[4,5-b]pyridin-5-yl)-2,2-difluorocyclopropane-1-carboxamide], the Kd is reported as 1 to 10 nM.
CS(=O)(=O)c1cc([C@H]2CCCOC2)ccc1Nc1cc(NC(=O)C2CC2(F)F)nc2[nH]c(C(F)F)nc12 (stereo partly drawn) [I-360, N-(2-(difluoromethyl)-7-((2-(methylsulfonyl)-4-((R)-tetrahydro-2H-pyran-3-yl)phenyl)amino)-3H-imidazo[4,5-b]pyridin-5-yl)-2,2-difluorocyclopropane-1-carboxamide] showed a Kd of 1 to 10 nM.
With Cc1nc2c(Nc3ccc(C4CCC4)cc3S(C)(=O)=O)cc(NC(=O)C3CC3(F)F)nc2[nH]1 (stereo not drawn) [I-361, N-(7-((4-cyclobutyl-2-(methylsulfonyl)phenyl)amino)-2-methyl-3H-imidazo[4,5-b]pyridin-5-yl)-2,2-difluorocyclopropane-1-carboxamide] the Kd was 1 to 10 nM.
CN=S(C)(=O)c1ccccc1Nc1cc(NC(=O)C2CC2)nc2[nH]c(C(F)F)nc12 (stereo not drawn) [I-362] showed a Kd of 0.1 to 0.5 nM.
Cc1nc2c(Nc3ccc(-c4nn(C)cc4C)cc3S(C)(=O)=O)cc(NC(=O)C3CC3(C)C)nc2[nH]1 (stereo not drawn) [I-363, N-(7-((4-(1,4-dimethyl-1H-pyrazol-3-yl)-2-(methylsulfonyl)phenyl)amino)-2-methyl-3H-imidazo[4,5-b]pyridin-5-yl)-2,2-dimethylcyclopropane-1-carboxamide] showed a Kd of 1 to 10 nM.
Work on Cc1cn(C)nc1-c1ccc(Nc2cc(NC(=O)C3CC3(C)C)nc3[nH]c(C(F)F)nc23)c(S(C)(=O)=O)c1 (stereo not drawn) [I-364, N-(2-(difluoromethyl)-7-((4-(1,4-dimethyl-1H-pyrazol-3-yl)-2-(methylsulfonyl)phenyl)amino)-3H-imidazo[4,5-b]pyridin-5-yl)-2,2-dimethylcyclopropane-1-carboxamide] yielded a Kd of 1 to 10 nM.
Work on CS(=O)(=O)c1cc(C2CCCCO2)ccc1Nc1cc(Nc2cccc(C(F)(F)F)n2)nc2[nH]c(C(F)F)nc12 (stereo not drawn) [I-365, 2-(difluoromethyl)-N7-(2-(methylsulfonyl)-4-(tetrahydro-2H-pyran-2-yl)phenyl)-N5-(6-(trifluoromethyl)pyridin-2-yl)-3H-imidazo[4,5-b]pyridine-5,7-diamine] yielded a Kd of 0.5 to 1 nM.
Work on Cc1cc(Nc2cc(Nc3ccc(C4CCCCO4)cc3S(C)(=O)=O)c3nc(C(F)F)[nH]c3n2)nc(C)n1 (stereo not drawn) [I-366, 2-(difluoromethyl)-N5-(2,6-dimethylpyrimidin-4-yl)-N7-(2-(methylsulfonyl)-4-(tetrahydro-2H-pyran-2-yl)phenyl)-3H-imidazo[4,5-b]pyridine-5,7-diamine] yielded a Kd of less than 0.1 nM.
Cc1cc(Nc2cc(Nc3ccc(C4CCCCO4)cc3S(C)(=O)=O)c3nc(C)[nH]c3n2)nc(C)n1 (stereo not drawn) [I-367, N5-(2,6-dimethylpyrimidin-4-yl)-2-methyl-N7-(2-(methylsulfonyl)-4-(tetrahydro-2H-pyran-2-yl)phenyl)-3H-imidazo[4,5-b]pyridine-5,7-diamine] gave a Kd of less than 0.1 nM.
CN(c1cc(C2CCCCO2)ccc1Nc1cc(NC(=O)C2CC2)nc2[nH]c(C(F)F)nc12)S(C)(=O)=O (stereo not drawn) [I-369, N-(2-(difluoromethyl)-7-((2-(N-methylmethylsulfonamido)-4-(tetrahydro-2H-pyran-2-yl)phenyl)amino)-3H-imidazo[4,5-b]pyridin-5-yl)cyclopropanecarboxamide] was tested, and the Kd was 0.1 to 0.5 nM.
In the case of CN(c1cc(-c2cncn2C)ccc1Nc1cc(NC(=O)[C@H]2C[C@@H]2F)nc2[nH]c(C(F)F)nc12)S(C)(=O)=O [I-370, (1R,2S)—N-(2-(difluoromethyl)-7-((4-(1-methyl-1H-imidazol-5-yl)-2-(N-methylmethylsulfonamido)phenyl)amino)-3H-imidazo[4,5-b]pyridin-5-yl)-2-fluorocyclopropane-1-carboxamide], the Kd is reported as 0.1 to 0.5 nM.
Compound Cn1ccc(-c2ccc(Nc3cc(NC(=O)[C@H]4C[C@@H]4F)nc4[nH]c(C(F)F)nc34)c(S(C)(=O)=O)c2)n1 [I-371, (1R,2S)—N-(2-(difluoromethyl)-7-((4-(1-methyl-1H-pyrazol-3-yl)-2-(methylsulfonyl)phenyl)amino)-3H-imidazo[4,5-b]pyridin-5-yl)-2-fluorocyclopropane-1-carboxamide] has a Kd of 0.1 to 0.5 nM.
In the case of Cc1nc2c(Nc3ccc(-c4cnn(C)c4)cc3N(C)S(C)(=O)=O)cc(NC(=O)[C@H]3C[C@@H]3F)nc2[nH]1 [I-372, (1R,2S)-2-fluoro-N-(2-methyl-7-((4-(1-methyl-1H-pyrazol-4-yl)-2-(N-methylmethylsulfonamido)phenyl)amino)-3H-imidazo[4,5-b]pyridin-5-yl)cyclopropane-1-carboxamide], the Kd is reported as 0.5 to 1 nM.
COc1c(Nc2cc(NC(=O)[C@H]3C[C@@H]3F)nc3[nH]c(C)nc23)cccc1-c1ncn(C)n1 [I-373, (1R,2S)-2-fluoro-N-(7-((2-methoxy-3-(1-methyl-1H-1,2,4-triazol-3-yl)phenyl)amino)-2-methyl-3H-imidazo[4,5-b]pyridin-5-yl)cyclopropane-1-carboxamide] was tested, and the Kd was 1 to 10 nM.
For Cc1nc2c(Nc3ccc(C4CCCCO4)cc3N(C)S(C)(=O)=O)cc(NC(=O)C3CC3)nc2[nH]1 (stereo not drawn) [I-375, N-(2-methyl-7-((2-(N-methylmethylsulfonamido)-4-(tetrahydro-2H-pyran-2-yl)phenyl)amino)-3H-imidazo[4,5-b]pyridin-5-yl)cyclopropanecarboxamide], the Kd was 0.1 to 0.5 nM.
Cc1nc2c(Nc3ccc(-c4cnn(C)c4)cc3N(C)S(C)(=O)=O)cc(NC(=O)C3CC3(F)F)nc2[nH]1 (stereo not drawn) [I-376, 2,2-difluoro-N-(2-methyl-7-((4-(1-methyl-1H-pyrazol-4-yl)-2-(N-methylmethylsulfonamido)phenyl)amino)-3H-imidazo[4,5-b]pyridin-5-yl)cyclopropane-1-carboxamide] gave a Kd greater than 10 nM.

Source: patent US10647713B2 (Nimbus Lakshmi, Inc., priority 2016, dated 2020)
